pEC50: −log10 of the molar value.
Key:
human ALX receptor = target: T1, human ALX receptor (Homo sapiens, UniProt P25090); experiment: Intracellular calcium measurements (FLIPR), agonistic activity in HEK293-hALXR-Gα16 cells; format: cell-based; conditions: Fluo-4 calcium FLIPR, normalized to WKYMVm 10 nM
T1 construct: expressed in transfected cells; host or cells: HEK293 (HEK293-hALXR-Gα16)
T1 sequence (P25090 1-351): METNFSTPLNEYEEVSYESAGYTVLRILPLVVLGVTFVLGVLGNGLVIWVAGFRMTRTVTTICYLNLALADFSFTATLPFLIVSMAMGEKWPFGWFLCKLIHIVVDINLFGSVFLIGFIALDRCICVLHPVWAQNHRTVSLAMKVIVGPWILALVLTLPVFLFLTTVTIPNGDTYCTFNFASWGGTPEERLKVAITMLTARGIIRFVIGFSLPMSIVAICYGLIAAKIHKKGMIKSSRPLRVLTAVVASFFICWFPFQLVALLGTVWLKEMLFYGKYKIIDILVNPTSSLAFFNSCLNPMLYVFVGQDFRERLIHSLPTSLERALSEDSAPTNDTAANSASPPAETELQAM
Procedure, shortened: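 Agonist-induced calcium flux was recorded by FLIPR (488/540 nm) in HEK293-hALXR-Gα16 cells pre-loaded with Fluo-4 AM (1 μM, 60 min, 37°C). Peak signal above baseline, after subtracting buffer addition, was expressed relative to WKYMVm at 10 nM final.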

human FPRL2 = target: T2, human FPRL2 (Homo sapiens, UniProt P25089); experiment: Intracellular calcium measurements (FLIPR), agonistic activity in HEK293-hFPRL2-Gα16 cells; format: cell-based; conditions: Fluo-4 calcium FLIPR, normalized to GLY14-Humanin 100 nM
T2 construct: expressed in transfected cells; host or cells: HEK293 (HEK293-hFPRL2-Gα16)
T2 sequence (P25089 1-353): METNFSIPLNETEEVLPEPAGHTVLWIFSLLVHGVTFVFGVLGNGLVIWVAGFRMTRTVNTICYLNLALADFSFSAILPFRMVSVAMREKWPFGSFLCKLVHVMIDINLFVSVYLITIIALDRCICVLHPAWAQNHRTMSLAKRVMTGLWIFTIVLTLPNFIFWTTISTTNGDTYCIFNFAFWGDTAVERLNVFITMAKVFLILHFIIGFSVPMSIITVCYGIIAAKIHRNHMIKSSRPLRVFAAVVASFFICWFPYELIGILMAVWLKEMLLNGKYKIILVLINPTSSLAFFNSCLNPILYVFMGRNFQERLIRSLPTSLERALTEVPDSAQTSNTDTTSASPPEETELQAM
Procedure, shortened: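 Peak values after baseline subtraction are expressed relative to 100 nM Gly14-Humanin; compounds diluted in assay buffer from 10 mM DMSO stocks.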

Row | Structure (SMILES) | pEC50 (human ALX receptor) | pEC50 (human FPRL2)
1 | O=C(NCCCCN1CCCC1)[C@H]1[C@H](C(=O)Nc2nc3ccc(F)cc3s2)[C@@H]2C=C[C@H]1C21CC1 (racemic) [Example 148, (5R*)—N^5-(6-Fluoro-benzothiazol-2-yl)-(6R*)—N^6-(4-pyrrolidin-1-yl-butyl)-(4S*,7R*)-[4,7-ethenylene-spiro[2.4]heptane]-5,6-dicarboxamide] | 5.12 | 6.65
2 | O=C(NCCCCN1CCCC1)[C@H]1[C@H](C(=O)Nc2cnc(Br)c(F)c2)[C@@H]2CC[C@H]1C21CC1 [Example 402, (5R)—N^5-(2-Bromo-3-fluoro-pyridin-5-yl)-(6R)—N^6-(4-pyrrolidino-butyl)-(4S,7R)-[4,7-ethylene-spiro[2.4]heptane]-5,6-dicarboxamide] | 6.46 | 7.18
3 | CC(=O)c1csc(CNC(=O)[C@H]2[C@H](C(=O)NCCCc3nc4ccccc4[nH]3)[C@H]3C=C[C@@H]2C32CC2)n1 (racemic) [Example 247, (5R*)—N^5-(4-Acetyl-thiazol-2-yl-methyl)-(6R*)—N^6-(3-(1H-benzoimidazol-2-yl)-propyl)-(4S*,7R*)-[4,7-ethenylene-spiro[2.4]heptane]-5,6-dicarboxamide] | 6.97 | 5.97
4 | O=C(N[C@H]1CC[C@H](O)CC1)[C@H]1[C@H](C(=O)Nc2ncc(Br)s2)[C@@H]2CC[C@H]1C21CC1 [Example 408, (5R)—N^5-(5-Bromothiazol-2-yl)-(6R)—N^6-(4-hydroxy-cyclohexyl)-(4S,7R)-[4,7-ethylene-spiro[2.4]heptane]-5,6-dicarboxamide] | 7.16 | 4.79
5 | CC(=O)c1ncc(CNC(=O)[C@H]2[C@H](C(=O)NCCCCN3CCCC3)[C@H]3C=C[C@@H]2C32CC2)s1 (racemic) [Example 224, (5R*)—N^5-(2-Acetyl-thiazol-5-yl-methyl)-(6R*)—N^6-(4-pyrrolidin-1-yl-butyl)-(4S*,7R*)-[4,7-ethenylene-spiro[2.4]heptane]-5,6-dicarboxamide] | 6.00 | 5.73
6 | CC(C)Oc1ccc(CNC(=O)[C@H]2[C@H](C(=O)NCCCCN3CCCC3)[C@H]3C=C[C@@H]2C32CC2)cc1 (racemic) [Example 233, (5R*)—N^5-(4-Isopropoxy-phenyl-methyl)-(6R*)—N^6-(4-pyrrolidin-1-yl-butyl)-(4S*,7R*)-[4,7-ethenylene-spiro[2.4]heptane]-5,6-dicarboxamide] | 5.14 | 6.71
7 | O=C(NCCCCN1CCCC1)[C@H]1[C@H](C(=O)NCc2ccc(F)c(Br)c2)[C@@H]2C=C[C@H]1C21CC1 (racemic) [Example 354, (5R*)—N^5-(3-Bromo-4-fluorophenyl-methyl)-(6R*)—N^6-(4-pyrrolidino-butyl)-(4S*,7R*)-[4,7-ethenylene-spiro[2.4]heptane]-5,6-dicarboxamide] | 5.13 | 6.65
8 | O=C(NCCCCN1CCCC1)[C@H]1[C@H](C(=O)Nc2nnc(C(F)(F)F)s2)[C@@H]2C=C[C@H]1C21CC1 (racemic) [Example 257, (5R*)—N^5-(5-Trifluoromethyl-1,3,4-thiadiazol-2-yl)-(6R*)—N^6-(4-pyrrolidin-1-yl-butyl)-(4S*,7R*)-[4,7-ethenylene-spiro[2.4]heptane]-5,6-dicarboxamide] | 5.22 | 6.78
9 | O=C(NCCCCN1CCCC1)[C@H]1[C@H](C(=O)NCC2CCCCC2)[C@@H]2C=C[C@H]1C21CC1 (racemic) [Example 125, (5R*)—N^5-(Cyclohexyl-methyl)-(6R*)—N^6-(4-pyrrolidin-1-yl-butyl)-(4S*,7R*)-[4,7-ethenylene-spiro[2.4]heptane]-5,6-dicarboxamide] | 7.22 | 6.57

The next lines start with the values.

Row | pEC50 (human ALX receptor) | pEC50 (human FPRL2) | Structure (SMILES)
10 | 8.70 | 6.69 | COc1ccc(NC(=O)C2C(C(=O)NCCCCN3CCCC3)C3C=CC2C32CC2)cc1 (racemic) [Example 115, (5R*)—N^5-(4-Methoxyphenyl)-(6R*)—N^6-(4-pyrrolidin-1-yl-butyl)-(4S*,7R*)-[4,7-ethenylene-spiro[2.4]heptane]-5,6-dicarboxamide]
11 | 8.30 | 5.85 | COCCNC(=O)[C@H]1[C@H](C(=O)Nc2ccc(Br)cc2)[C@@H]2C=C[C@H]1C21CC1 [Example 31, (5R)—N^5-(4-Bromophenyl)-(6R)—N^6-(2-methoxy-ethyl)-(4S,7R)-[4,7-ethenylene-spiro[2.4]heptane]-5,6-dicarboxamide]
12 | 9.18 | 7.39 | O=C(NCCCCCN1CCCC1)[C@H]1[C@H](C(=O)Nc2ccc(Br)cc2)[C@@H]2C=C[C@H]1C21CC1 [Example 221, (5R)—N^5-(4-Bromophenyl)-(6R)—N^6-(5-pyrrolidino-pentyl)-(4S,7R)-[4,7-ethenylene-spiro[2.4]heptane]-5,6-dicarboxamide]
13 | 7.38 | 6.63 | O=C(NCCCCN1CCCC1)[C@H]1[C@H](C(=O)NCc2ccc(I)cc2)[C@@H]2C=C[C@H]1C21CC1 (racemic) [Example 200, (5R*)—N^5-(4-Iodophenyl-methyl)-(6R*)—N^6-(4-pyrrolidin-1-yl-butyl)-(4S*,7R*)-[4,7-ethenylene-spiro[2.4]heptane]-5,6-dicarboxamide]
14 | 7.77 | 6.39 | O=C(NCCCCN1CCCC1)C1C(C(=O)Nc2ccc(Br)cn2)C2C=CC1C21CC1 (racemic) [Example 119, (5R*)—N^5-(5-Bromo-pyridin-2-yl)-(6R*)—N^6-(4-pyrrolidin-1-yl-butyl)-(4S*,7R*)-[4,7-ethenylene-spiro[2.4]heptane]-5,6-dicarboxamide]
15 | 9.62 | 5.27 | CC(C)CNC(=O)[C@H]1[C@H](C(=O)Nc2ccc(Br)cc2)[C@@H]2C=C[C@H]1C21CC1 (racemic) [Example 4, (5R*)—N^5-(4-Bromophenyl)-(6R*)—N^6-(3-isobutyl)-(4S*,7R*)-[4,7-ethenylene-spiro[2.4]heptane]-5,6-dicarboxamide]
16 | 8.47 | 5.68 | CN(C)C(=O)CCNC(=O)[C@H]1[C@H](C(=O)Nc2ccc(Br)cc2)[C@@H]2C=C[C@H]1C21CC1 (racemic) [Example 204, (5R*)—N^5-(4-Bromophenyl)-(6R*)—N^6-(3-dimethylamino-3-oxopropyl)-(4S*,7R*)-[4,7-ethenylene-spiro[2.4]heptane]-5,6-dicarboxamide]
17 | 7.51 | < 4.60 | NC(=O)CCNC(=O)[C@H]1[C@H](C(=O)Nc2ccc(Cl)nc2)[C@@H]2C=C[C@H]1C21CC1 [Example 281, (5R)—N^5-(2-Chloropyrid-5-yl)-(6R)—N^6-(3-amino-3-oxopropyl)-(4S,7R)-[4,7-ethenylene-spiro[2.4]heptane]-5,6-dicarboxamide]
18 | 7.34 | 6.48 | Cc1ccc(CNC(=O)[C@H]2[C@H](C(=O)NCCCCN3CCCC3)[C@H]3C=C[C@@H]2C32CC2)cc1 (racemic) [Example 123, (5R*)—N^5-[(4-Methyl-phenyl)-methyl]-(6R*)—N^6-(4-pyrrolidin-1-yl-butyl)-(4S*,7R*)-[4,7-ethenylene-spiro[2.4]heptane]-5,6-dicarboxamide]
19 | 7.23 | 6.31 | NCc1cccc(CNC(=O)[C@H]2[C@H](C(=O)NCc3ccc(Br)cc3)[C@@H]3C=C[C@H]2C32CC2)c1 (racemic) [Example 308, (5R*)—N^5-(4-Bromophenyl-methyl)-(6R*)—N^6-(3-(aminomethyl)phenyl-methyl)-(4S*,7R*)-[4,7-ethenylene-spiro[2.4]heptane]-5,6-dicarboxamide]
20 | 8.85 | 5.41 | NCCCNC(=O)[C@H]1[C@H](C(=O)Nc2ccc(Br)cc2)[C@@H]2C=C[C@H]1C21CC1 (racemic) [Example 16, (5R*)—N^5-(4-Bromophenyl)-(6R*)—N^6-(3-amino-propyl)-(4S*,7R*)-[4,7-ethenylene-spiro[2.4]heptane]-5,6-dicarboxamide]
21 | 6.60 | 6.05 | Cc1nc(CC(=O)NC[C@H]2[C@H](C(=O)Nc3ccc(Br)cc3)[C@@H]3C=C[C@H]2C32CC2)cs1 (racemic) [Example 180, (5R*)—N^5-(4-Bromo-phenyl)-(6R*)-6-[(2-(2-methyl-thiazol-4-yl)-acetylamino)-methyl]-(4S*,7R*)-[4,7-ethenylene-spiro[2.4]heptane]-5-carboxamide]
22 | 9.46 | 7.82 | O=C(NCCCCN1CCCC1)[C@H]1[C@H](C(=O)Nc2ccc(Br)cc2)[C@@H]2CC[C@H]1C21CC1 [Example 113, (5R)—N^5-(4-Bromophenyl)-(6R)—N^6-(4-pyrrolidin-1-yl-butyl)-(4S,7R)-[4,7-ethylene-spiro[2.4]heptane]-5,6-dicarboxamide]

Source: US8563714B2, “Bridged spiro [2.4] heptane derivatives as ALX receptor and/or FPRL2 agonists” (Actelion Pharmaceuticals Ltd., priority 2009, dated 2013)
